Laboratory results reported in PubChem BioAssay (NCI).
“And” between values parts separate entries of the source, which are not always exact repeats. Equal values may be shown once.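 A five-concentration, 48-hour dose response in 96-well plates underlies each endpoint, interpolated linearly between surrounding concentrations. GI50 marks 50% less growth. TGI marks complete inhibition of growth.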

Legend:
Assay in all cases: NCI tumour cell line growth inhibition, 48 h
[1] = system: OVCAR-3 ovarian
[2] = system: UO-31 renal
[3] = system: UACC-62 melanoma
[4] = system: HL-60(TB) leukemia
[5] = system: MDA-MB-231 breast
[6] = system: EKVX NSCLC
[7] = system: HCT-116 colon
[8] = system: SF-268 CNS
[9] = system: HT29 colon
[10] = system: SNB-19 CNS

Row | SMILES | GI50 [1] | TGI [1] | GI50 [2] | TGI [2] | GI50 [3] | TGI [3] | GI50 [4] | TGI [4] | GI50 [5] | TGI [5] | GI50 [6] | TGI [6] | GI50 [7] | TGI [7] | GI50 [8] | TGI [8] | GI50 [9] | TGI [9] | GI50 [10] | TGI [10]
1 | C[C@H](c1ccccc1)N(CCC(=O)O)C(=O)CCN(C(=O)CCN(C(=O)CCN[C@H](C)c1ccccc1)[C@H](C)c1ccccc1)[C@H](C)c1ccccc1 | > 100 µM | > 100 µM | > 100 µM | > 100 µM | > 100 µM | > 100 µM | > 100 µM | > 100 µM | > 100 µM | > 100 µM | > 100 µM | > 100 µM | > 100 µM | > 100 µM | > 100 µM | > 100 µM | > 100 µM | > 100 µM | > 100 µM | > 100 µM
2 | Fc1ccc(C2C3CCOc4c(ccc5ccccc45)C3=NN2c2ccccc2)cc1 (stereo not drawn) | 99.6 µM | > 100 µM | > 100 µM | > 100 µM | > 66.2 µM | > 100 µM | > 100 µM | > 100 µM | 43.8 µM | > 100 µM | > 87.4 µM | > 100 µM | > 86.2 µM | > 100 µM | > 77.9 µM | > 100 µM | > 100 µM | > 100 µM | 99.2 µM | > 100 µM
3 | CCCc1n(Cc2ccc3ccccc3n2)cc[n+]1Cc1ccc2ccccc2n1 | 0.705 µM | 10.6 µM | 16.5 µM | 73.9 µM | 1.12 µM | 6.19 µM | 0.34 µM | 1.69 µM | 2.11 µM | 8.47 µM | 5.67 µM | > 79.6 µM | 2.81 µM | 13.1 µM | 2.3 µM | 14.2 µM | 1.61 µM | 11.4 µM | 1.13 µM | 13.2 µM
4 | COc1ccc2nc3cc(Cl)ccc3c(Nc3cc(C(C)C)c(O)cc3C)c2c1 | 1.69 µM | 3.26 µM | 1.49 µM | 2.98 µM | 1.72 µM | 3.5 µM | 1.31 µM | – | 1.82 µM | 3.97 µM | 2.22 µM | 7.75 µM | 1.59 µM | 2.95 µM | 2.35 µM | 6.86 µM | 2.31 µM | 6.07 µM | 2.97 µM | 12.7 µM
5 | COC(=O)c1ccc2c(C(=Nc3ccc(N(C)C(=O)CN4CCN(C)CC4)cc3)c3ccccc3)c(O)[nH]c2c1 | 7.08 µM and 19.9 µM | 16.1 µM and 47 µM | 1.2 µM and 0.739 µM | 5.76 µM and > 34 µM | 2.18 µM and 3.09 µM | 5.09 µM and 21.4 µM | 9.41 µM and 9.59 µM | 32.3 µM and 32.1 µM | 1.91 µM and 2.5 µM | 4.11 µM and 6.96 µM | 10.6 µM and 49.6 µM | > 100 µM | 1.58 µM and 1.48 µM | 3.06 µM and 2.97 µM | 1.79 µM and 2.29 µM | – | 1.22 µM | 3.9 µM | 2.6 µM and 3.55 µM | > 100 µM
6 | CCc1ccc([O-])c(C=NCCCN(C)CCCN=Cc2cc(C)ccc2[O-])c1.[Co+3].[N-]=[N+]=[N-] | 50 µg/mL and 71.1 µg/mL | 50 µg/mL and > 150 µg/mL | 50 µg/mL and 84.2 µg/mL | 50 µg/mL and > 150 µg/mL | 50 µg/mL and 78.2 µg/mL | 50 µg/mL and > 150 µg/mL | 61 µg/mL | > 150 µg/mL | 15.2 µg/mL | 38.5 µg/mL | 50 µg/mL and 103 µg/mL | 50 µg/mL and > 150 µg/mL | 50 µg/mL and 56.2 µg/mL | 50 µg/mL and > 150 µg/mL | 21.9 µg/mL and 53.3 µg/mL | 50 µg/mL and > 150 µg/mL | 50 µg/mL and > 150 µg/mL | 50 µg/mL and > 150 µg/mL | 40.6 µg/mL and 61.6 µg/mL | 50 µg/mL and 123 µg/mL
7 | COc1ccc(-c2nc3sccn3c2-c2ccnc(NCCCNS(=O)(=O)c3ccc(F)cc3)n2)cc1 | 2.96 µM | 48.7 µM | 1.85 µM | 5.17 µM | 0.752 µM | 2.73 µM | 2.64 µM | 9.22 µM | 4.18 µM | > 100 µM | 3.12 µM | > 100 µM | 3.19 µM | 24.4 µM | 3.05 µM | 48.3 µM | 2.16 µM | > 100 µM | 4.43 µM | > 100 µM
8 | CC(=O)C(C=O)C(C)=O.CC(=O)CC(C)=O.CC(=O)CC(C)=O.[Ru] | 2.15 µM | 26.3 µM | 26.9 µM | > 100 µM | 0.589 µM | 19.1 µM | 30.4 µM | > 100 µM | 15.7 µM | 68.8 µM | 18.1 µM | 95.9 µM | 21.8 µM | > 100 µM | 34.8 µM | > 100 µM | 21 µM | > 100 µM | 52.1 µM | > 100 µM
9 | COc1cc(-c2nn(-c3cccc(NC(=O)CCN4CCN(C)CC4)c3)cc2-c2ccncc2)ccc1Cl | 0.363 µM | 1.75 µM | 1.38 µM | 3.91 µM | 1.04 µM | 2.66 µM | 0.735 µM | 2.79 µM | 1.69 µM | 3.66 µM | 2.13 µM | 12.6 µM | 0.904 µM | 4.17 µM | 1.43 µM | 3.53 µM | 0.371 µM | 1.64 µM | 2.01 µM | 8.89 µM
10 | Cc1[nH]n(-c2cccc(Cl)c2)c(=O)c1/C=C1\C=c2ccccc2=CC1=O | 59.5 µM | > 100 µM | > 100 µM | > 100 µM | 39.8 µM | > 100 µM | > 100 µM | > 100 µM | 36.1 µM | > 100 µM | > 100 µM | > 100 µM | > 100 µM | > 100 µM | 97.1 µM | > 100 µM | > 100 µM | > 100 µM | 45.7 µM | > 100 µM
11 | CNCCN(C)Cc1cn[nH]c1-c1ccc(OC2CC(OCCC3CCOCC3)C2)cc1 (stereo not drawn) | > 80 µM | > 100 µM | 28 µM | > 100 µM | 39.1 µM | > 100 µM | > 80.1 µM | > 100 µM | 40.7 µM | > 100 µM | > 77.7 µM | > 100 µM | > 67.9 µM | > 100 µM | > 100 µM | > 100 µM | 38.6 µM | > 100 µM | > 100 µM | > 100 µM
12 | N=C1/C(=C2\Nc3ccccc3S2)CC(=O)N1c1ccc(SC(F)F)cc1 | 17.1 µM | > 100 µM | 7.38 µM | > 100 µM | 24 µM | > 100 µM | 5.02 µM | > 100 µM | 24.6 µM | > 100 µM | 24.5 µM | > 100 µM | 8.89 µM | > 100 µM | 4.45 µM | > 100 µM | 1.99 µM | > 100 µM | 29.1 µM | > 100 µM
